This note sets out measurements from the NIST ThermoML archive (doi:10.1016/j.tca.2012.02.020).

± gives the expanded uncertainty stated by the source.

For data set [1] the following is noted: Crystal; visual observation.
The nature of data set [2]: Molar enthalpy of transition or fusion. The settings on record: Crystal; DSC.

`Clc1ccc(Br)cc1` [1-bromo-4-chlorobenzene]: the Normal melting temperature in data set [1] was 65.00 ± 1 °C. In addition, in data set [2], the “Molar enthalpy of transition or fusion” value came to 4.76 ± 0.143 kcal/mol.
On to `O=Cc1cccc(O)c1` [3-hydroxybenzaldehyde], for which the Normal melting temperature in data set [1] is 103.00 ± 1 °C. Also, the “Molar enthalpy of transition or fusion” value in data set [2] stood at 5.76 ± 0.167 kcal/mol.
Turning to `Nc1cccc(O)c1` [3-hydroxybenzenamine], the Normal melting temperature in data set [1] came out at 123.00 ± 1 °C. Moreover, the “Molar enthalpy of transition or fusion” value in data set [2] amounted to 6.6 ± 0.191 kcal/mol.
In the case of `c1ccc(-c2ccccc2)cc1` [biphenyl], in data set [1], the Normal melting temperature was 70.50 ± 1 °C. For the same compound, the “Molar enthalpy of transition or fusion” value in data set [2] turned out to be 4.61 ± 0.143 kcal/mol.
